# Source: patent US5578639A, “PLA2 inhibitors and their use for inhibition of intestinal cholesterol absorption” (Warner-Lambert Company, priority 1995, dated 1996)
# How the values were obtained:
# [1] = system: plasma lipids; experiment: Plasma lipids in cholesterol-fed rats after oral PLA2 inhibitor; assay type: in vivo; settings: 100 mg/kg oral gavage, about 8 hours after start of feeding
# Experimental: Ultimately, agents that inhibit the absorption of dietary cholesterol should suppress postprandial increases in plasma cholesterol. This was tested with several. PLA2 inhibitors in cholesterol-fed rats. The general protocol consisted of preparing a carboxymethyl cellulose/Tween 20 dispersion of the compound of interest and administering it at a dose of 100 mg/kg by oral gavage to rats previously trained to meal-feed. Immediately following administration of the inhibitor, the rats were fed a lipid-rich meal of chow supplemented with cholesterol, peanut oil, and cholic acid.
# [2] = system: intestinal lipid absorption; experiment: Lymph-fistula rats, effect of PLA2 inhibitors on lymphatic lipid output; assay type: in vivo, rat; settings: FIGS. 10 and 11
# Source text: The intestinal lipid absorption pathway was isolated in the rat by inserting an infusion cannula in the proximal duodenum and implanting a second cannula in the mesenteric lymph vessel to intercept the lipoprotein output from the intestine. This lymph-fistula rat model was used to investigate the effect of pancreatic PLA2 inhibition, in situ, on intestinal absorption of infused lipid emulsions. In a typical experiment, cannulae were implanted the day before the experimental infusion. Following surgery, the animals were infused (2.5 mL/hr) with isotonic saline containing dextrose to flush the GI tract and obtain basal levels of lymphatic lipid output. On the day of the experiment, infusion of the dextrose recovery solution was continued for 1 hour to collect a basal lymph fraction. At the start of the next hour, the intake of the duodenal infusion cannula was switched to a lipid emulsion of isotonic saline containing safflower oil (59 mM), cholesterol (5.2 mM), PC (3.3 mM) and taurocholic acid (1.9 mM). One hour lymph fractions were collected until the end of the experiment. The lipid content (mass) of lymph fractions was determined by HPLC with a mass-sensitive, evaporative light-scattering detector. […]
# [3] = target: T1, porcine pancreatic PLA2 (Sus scrofa, UniProt P00592); experiment: Fluorescence assay of porcine pancreatic PLA2 inhibition in vitro; assay type: biochemical; settings: porcine pancreatic PLA2, in vitro; read-out: In Vitro IC50 (porc. panc. PLA2)
# T1 construct: purchased Sigma Chemical Company (St. Louis, Mo.); host or cells: porcine pancreas
# T1 sequence (P00592 23-146): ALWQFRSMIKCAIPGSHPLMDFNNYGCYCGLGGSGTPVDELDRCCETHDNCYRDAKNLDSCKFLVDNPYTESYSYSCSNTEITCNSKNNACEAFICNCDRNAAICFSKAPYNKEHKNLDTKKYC
# Source text: The IC50 values for inhibition of porcine pancreatic PLA2, in vitro, are included for comparison with the in vivo activities.
# A sensitive fluorescence method was used to measure the activity of pancreatic phospholipase A2 (PLA2) in vitro. PLA2 hydrolyzes the ester bond linking fatty acids to the sn-2 position in glycerophospholipids. Several types of PLA2 exist, including those isolated from venoms, synovial fluid, platelets, immunoactive cell types and the pancreas. The pancreatic PLA2 was the subject of this experiment because of its fundamental role in promoting lipid absorption in the intestine.
# PLA2 activity was detected by the loss of pyrene excimer fluorescence that occurs when (1-pyrenyl)decanoic acid is hydrolysed from the sn-2 position of 1,2-bis-(1-pyrenedecanoyl)sn-glycero-3-phosphocholine ((P10)2 PC) by the action of PLA2. The use of similar pyrene-labeled PC substrates to detect PLA2 activity has been described previously (Radvanyi F., Jordan L., Russo-Marie F., Bon C., "A sensitive and continuous fluorometric assay for phospholipase A2 using pyrene-labeled phospholipids in the presence of serum albumin." Anal. Biochem., 177:103-109 (1989)). The full photophysical basis for the assay is described elsewhere (Birks J. B., "Photophysics of Aromatic Molecules," Wiley Interscience, New York, pp 301-371 (1970)).
# In brief, pyrene excimers are formed by the complexation of one pyrene moiety in the ground-state with one pyrene moiety in the excited state to form an excited-state dimer (excimer) which fluoresces at longer wavelengths (475 nm emission maximum) than the wavelength range in which excited-state pyrene monomers fluoresce (370-400 nm). Excimer formation is dependent on the concentration of pyrene moieties. (P10)2 PC emits excimer fluorescence almost exclusively due to the fixed juxtaposition of the pyrene chromophores. The substrate concentration is sufficiently dilute so that excimer formation between the products of PLA2 action, namely lysoPY10PC and the (1-pyrenyl)decanoic acid, is insignificant.
# In general, this assay scheme should have been applicable to the study of any type of PLA2. However, since pancreatic PLA2 is unique from the other PLA2 's in that it operates almost exclusively against micellized PC, the PC substrate in this assay was micellized with 1 mM deoxycholic acid. The PC component of the micelles consisted of 5 μM (P10)2 PC substrate diluted with a 99-fold excess (495 μM) of 1-oleyl-2-palmityl phosphatidylcholine (OPPC). The OPPC was inert to PLA2 hydrolysis because it contained ether-linked fatty alkyl chains in place of the ester-linked fatty acyl chains of normal PC. OPPC was included to 1) dilute the micellar (P10)2 PC concentration thereby minimizing intermolecular excimer formation, and 2) preserve the integrity of the micelles against the action of PLA2 since nonspecific micelle disruption could lead to nonlinear kinetics and fluorescence changes independent of lipolysis.
# Phospholipase A2 (porcine pancreas), bovine serum albumin (BSA) (fraction V, essentially fatty acid-free) and sodium deoxycholate were obtained from Sigma Chemical Company, (St. Louis, Mo.). 1-Oleyl-2-palmityl-DL-phosphatidylcholine (OPPC) was ordered from Serdary Research Laboratories, Inc. (London, Ont., Canada). 1,2-Bis-(1-pyrenedecanoyl)-sn-glycero-3-phosphatidylcholine ((P10)2 PC) was obtained from Molecular Probes, Inc. (Eugene, Oreg.).
# HEPES buffer (SHE) contained 150 mM NaCl, 20 mM HEPES (N-[2-hydroxyethyl]piperazine-N'-[2-ethanesulfonic acid]) and 1 mM EDTA (ethylenediamine tetraacetic acid) at pH 8.0.
# 1 mM (P10)2 PC in chloroform was prepared by adding 1 mL chloroform to a vial containing 1 mg of (P10)2 PC, as shipped by Molecular Probes. The actual concentration was determined spectrophotometrically by diluting 10 μL of the chloroform solution in 2 mL of ethanol. The absorbance spectrum of the ethanol solution was measured between 380 nm to 280 nm (Beckman DU-64). […]
# [4] = system: serum cholesterol; settings: neomycin 1.5-2 g/day; β-sitosterol 3-50 g/day; cited from earlier work
# [5] = system: cholesterol absorption; experiment: Cholesterol-fed hamster model, plasma and liver cholesterol / cholesterol absorption; assay type: in vivo; settings: FIG. 13
# Source text: Neomycin and β-sitosterol (Cytellin) have been used as cholesterol absorption inhibitors to treat hypercholesterolemic patients (Kesaniemi, et al., Serum cholesterol lowering by inhibition of cholesterol absorption, Atherosclerosis, VIII:791-794 (1989)). The mechanisms by which these agents inhibit intestinal cholesterol absorption are unknown. Relatively large doses must be administered (1.5-2 g/day neomycin, 3-50 g/day β-sitosterol) to achieve up to 25% reductions in serum cholesterol levels. The advantages of PLA2 inhibitors over these agents is that the mechanism of cholesterol absorption inhibition is known and sufficiently potent PLA2 inhibitors could be administered in much smaller doses (potentially fewer side effects and better patient compliance) to achieve greater reductions in serum cholesterol levels. For example, in a cholesterol-fed hamster model, administration of 100 mg/kg of the phospholipase A2 inhibitor methyl-[2-(hexadecyloxy)phenyl]methyl ester phosphonic acid (Compound D in FIG. 13) produced reductions in plasma and liver cholesterol levels nearly equivalent to those obtained with a ten-fold higher dose (i.e., 1000 mg/kg) of β-sitosterol. Pancreatic PLA2 inhibitors represent a significant advancement over current agents, the use of which has already proven cholesterol absorption inhibitors to be a beneficial and effective therapy for hypercholesterolemia.
# [6] = system: Caco-2 cells; experiment: Caco-2 retinol absorption; assay type: cell-based, human; settings: 10 μM retinol; FIG. 6
# Experimental: (§1) Caco-2 cells were used as a tissue culture model of the human intestinal epithelium to compare the effects of phosphatidylcholine and lysophosphatidylcholine on lipid absorption and the subsequent re-esterification and secretion of micelle-derived lipids.
# The micelle preparations used in the experiments described for FIG. 4 also contained 10 μM retinol. Retinol was included to determine whether the influence of micellar phospholipid composition on cholesterol absorption extended to other fatty alcohols. Like cholesterol, retinol is a fatty alcohol that is absorbed from the diet by the intestinal epithelium and passed into the circulation by an analogous transport process involving fatty acylation and assembly of the resultant retinyl esters into chylomicrons (Blomhoff R., Green M. H., Berg T., Norum K. R., "Transport and storage of vitamin A." Science, 250:399-404 (1990)).
# [7] = system: Caco-2 cells; experiment: Caco-2 lipase studies; assay type: cell-based, human
# Experimental: as §1
# This was tested with the Caco-2 cells. Taurocholic acid micelles containing phosphatidylcholine, triolein, cholesteryl oleate and cholesterol were placed in the medium covering the apical surface of Caco-2 cell monolayers. Depending on the neutral lipid lipase being studied, either the triolein or cholesteryl oleate was tritium-labeled. The time course of radiolabeled lipid uptake and metabolism was studied in the absence or presence of the neutral lipid lipases, with or without PLA2. The results are in agreement with those presented by Borgstrom and coworkers. […] The results for micellar tri[^3 H]olein uptake indicated a similar but less severe dependence of triglyceride lipase activity on PLA2.
# [8] = system: Caco-2 cells; experiment: Caco-2 phospholipase A2-dependent cholesterol absorption, time course; assay type: cell-based, human; settings: for suppression of cholesterol absorption by PC, effect of PLA2: porcine pancreatic PLA2, PC-containing micelles
molecule,measurement,setting,value
"CCCCCCCCCCCn1nnn(Cc2ccccc2)c1=N [Compound B, 1,4-dihydro-1-(phenylmethyl)-4-undecyl-5H-tetrazol-5-imine]",% Change in plasma lipids vs. Control: HDL Chol.,[1],9%
same,% Change in plasma lipids vs. Control: Total Chol.,[1],-32%
same,% Change in plasma lipids vs. Control: non-HDL Chol.,[1],-44%
same,lipid absorption in rats,[2],reduced
same,IC50,[3],4 µM
CC[C@H](CC[C@@H](C)[C@H]1CC[C@H]2[C@@H]3CC=C4C[C@@H](O)CC[C@]4(C)[C@H]3CC[C@]12C)C(C)C [β-sitosterol],reductions in serum cholesterol levels,[4],up to 25%
same,cholesterol absorption in hamsters,[5],reduced
PLA2: porcine pancreatic phospholipase A2,retinol uptake and esterification,[6],not affected
same,cellular absorption of fatty acids,[7]; FIGS. 7 and 8,dramatic increase
same,cellular accumulation of tritiated lipid from tri[3H]olein,"[7]; triglyceride lipase with or without PLA2, FIG. 8",the greatest cellular accumulation of tritiated lipid occurred in the incubation containing both lipases together
same,entry of micellar [3H]cholesteryl oleate label into cells,"[7]; with or without carboxyl ester lipase and PLA2, FIG. 7",did not enter the cells unless both carboxyl ester lipase and PLA2 were included in the incubation
same,[3H]oleate-labeled PC synthesis relative to phospholipid-free micelles,"[8]; 6 hours, micelles with lyso-PC, or PC with PLA2",slight decrease
same,cell [14C]cholesteryl ester relative to incubations without micellar phospholipid,"[8]; 12 hours, PC in the presence of PLA2",60%
same,cell-associated free [14C]cholesterol relative to level in the absence of PC,[8]; PLA2 added to PC-containing micelles,76%
same,"suppression of cholesterol absorption by PC, effect of PLA2",[8],partially reversed the inhibitory effects of micellar PC
same,"suppression of cholesterol absorption by PC, effect of PLA2",[8]; listed as pancreatic phospholipase A2,reverses the suppression of cholesterol absorption and metabolism
